Drawing on PubChem BioAssay (NCI), this text covers TGI and GI50 for 15 compounds.

Test systems include MALME-3M melanoma; SF-295 CNS; SNB-19 CNS; SNB-75 CNS; SW-620 colon; UACC-257 melanoma; KM12 colon; NCI-H226 lung; MCF7 breast; T-47D breast.
Experiment in all cases: DTP human tumour cell line panel, 48 h

Values joined by “and” are separate entries in the source; they are usually repeats but may differ in a detail not shown here. Equal values may be shown once.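 Step 1: Grow cells in 96-well plates. Step 2: Expose to compound for 48 hours at 5 concentrations. Step 3: Interpolate endpoints linearly; if unreached, use highest concentration. Abbreviation: GI50, concentration required for 50% inhibition of growth. Definition used: TGI = concentration required for complete inhibition of growth.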 *1 amine or outer side, *2 acyl side, *3 side chain or, on linkers, in order; H or OH if unused. Where a SMILES comes first, the peptide text is derived from it. Bridges are numbered along the chain shown (N, C = ends). [ ]: non-standard residue; d: D form. ξ: configuration not given here. X4 = CCC(C)C(N[*:1])C(O)CC(=O)O[C@H](C(=O)C(C)C(=O)[*:2])C(C)C; NMeY = CN[C@@H](Cc1ccc(O)cc1)C(=O)O; ξNMeL = CNC(CC(C)C)C(=O)O; ξT = CC(O)C(N)C(=O)O

As for `CCC(C)C1NC(=O)C(NC(=O)C(CC(C)C)N(C)C(=O)[C@@H]2CCCN2)C(C)OC(=O)[C@H](Cc2ccc(OC)cc2)N(C)C(=O)[C@@H]2CCCN2C(=O)[C@H](CC(C)C)NC(=O)C(C)C(=O)[C@H](C(C)C)OC(=O)CC1O` (stereo partly specified) (H-P[ξNMeL][ξT][X4]LP[NMeY](Me); ester 3-C), the TGI with MALME-3M melanoma was 0.00847 µM; with SF-295 CNS, 0.0149 µM; in the experiment with SNB-19 CNS it was 0.0398 µM; in the experiment on SNB-75 CNS, 0.00813 µM and 0.0191 µM; in the experiment on SW-620 colon, 0.0802 µM and 0.0232 µM; with UACC-257 melanoma, 0.00814 µM and 0.0465 µM.

Take `NC(=O)COc1ccccc1`: the total growth inhibition concentration (TGI) in the experiment with KM12 colon, with MALME-3M melanoma, in the experiment with NCI-H226 lung, in the experiment on SF-295 CNS, in the experiment with SNB-19 CNS and in the experiment on SNB-75 CNS was more than 100 µM throughout. Also, the TGI in the experiment with SW-620 colon and in the experiment on UACC-257 melanoma was more than 100 µM each time.

As to `COc1c/c(=C2/C=c3ccccc3=N2)[nH]/c1=C/c1[nH]c(C)cc1C`, the GI50 in the experiment on MALME-3M melanoma is 0.277 µM; in the experiment with MCF7 breast, 0.0647 µM; in the experiment with SF-295 CNS, 0.149 µM; in the experiment with SNB-19 CNS it was 0.598 µM; in the experiment on SNB-75 CNS it was 0.108 µM. Further, the total growth inhibition concentration (TGI) is 1.62 µM in the experiment on MALME-3M melanoma; 2.58 µM with MCF7 breast; 0.628 µM in the experiment with SF-295 CNS; more than 100 µM in the experiment on SNB-19 CNS; more than 100 µM in the experiment with SNB-75 CNS.

`OCCN=C1Nc2ccc(Cl)cc2C(=S)N2CSC[C@@H]12`: the TGI with KM12 colon, in the experiment on MALME-3M melanoma, with MCF7 breast, with SF-295 CNS, in the experiment on SNB-19 CNS and in the experiment on SW-620 colon was more than 100 µM throughout. Further, in the experiment on T-47D breast, the TGI is more than 100 µM.

On to `O=[As](O)(O)c1cc(N=Nc2ccc(-c3ccc(N=Nc4cc([As](=O)(O)O)c(O)cc4O)cc3)cc2)c(O)cc1O`, for which the TGI in the experiment on KM12 colon, in the experiment with MALME-3M melanoma, in the experiment with NCI-H226 lung, in the experiment with SF-295 CNS, in the experiment on SNB-19 CNS and in the experiment with SNB-75 CNS was more than 100 µM throughout. The TGI in the experiment on SW-620 colon and with UACC-257 melanoma was more than 100 µM each time.

Consider `COS(=O)c1cc(Cl)cc(Cl)c1O` (stereo unspecified), for which the total growth inhibition concentration (TGI) with KM12 colon, in the experiment with MALME-3M melanoma, with SNB-19 CNS, in the experiment with SNB-75 CNS and with UACC-257 melanoma was more than 100 µM each time.

For `CCCCCCCCCCCCCCCCNc1nc(=O)n(C2CC(O)C(CO)O2)cc1F` (stereo unspecified), the TGI was 34 µM in the experiment on KM12 colon; 22.8 µM with MALME-3M melanoma; 19.9 µM with MCF7 breast; 10.8 µM with NCI-H226 lung; 30.1 µM in the experiment on SF-295 CNS; 34.6 µM in the experiment on SNB-19 CNS. Also, the TGI in the experiment with SW-620 colon turned out to be 32.1 µM; in the experiment with T-47D breast, 25.3 µM; with UACC-257 melanoma, 33.9 µM.

Consider `CCOC(=O)C(Cc1ccccc1)(Cc1ccc(O)cn1)NC(=O)c1ccccc1` (stereo unspecified), for which the TGI is 54.8 µM with KM12 colon; 48.8 µM in the experiment with MALME-3M melanoma; 51.5 µM with MCF7 breast; more than 100 µM in the experiment on NCI-H226 lung; more than 100 µM in the experiment with SF-295 CNS; more than 100 µM in the experiment on SNB-19 CNS. In addition, the results for the TGI in the experiment with SNB-75 CNS, in the experiment on SW-620 colon and with UACC-257 melanoma were more than 100 µM, more than 100 µM and 95 µM, respectively.

For `COc1cc(C2C3=C(COC3=O)OC(C)(C)Oc3cc4c(cc32)OCO4)cc(OC)c1OC` (stereo unspecified), the TGI was 14.8 µM with KM12 colon; more than 100 µM in the experiment with MALME-3M melanoma; more than 100 µM in the experiment with MCF7 breast; more than 100 µM in the experiment with NCI-H226 lung; 0.532 µM in the experiment on SF-295 CNS; more than 100 µM with SW-620 colon. For the same compound, in the experiment on UACC-257 melanoma, the concentration for total growth inhibition (TGI) is more than 100 µM.

With `COc1cc(/C=C2/SC(c3ccccc3)N(c3cccc([N+](=O)[O-])c3)C2=O)cc(OC)c1OC` (stereo unspecified), the TGI with KM12 colon, in the experiment on MALME-3M melanoma, in the experiment with MCF7 breast, in the experiment with NCI-H226 lung, with SF-295 CNS and in the experiment on SNB-19 CNS was more than 100 µM in each case. Further, the TGI in the experiment with SW-620 colon, in the experiment with T-47D breast and in the experiment on UACC-257 melanoma was more than 100 µM each time.

In the case of `O=c1[nH]nc(Cc2ccc(Cl)cc2)n1O`, the concentration for total growth inhibition (TGI) with KM12 colon, in the experiment on MALME-3M melanoma, in the experiment with MCF7 breast, in the experiment with NCI-H226 lung, in the experiment with SF-295 CNS and with SNB-19 CNS was more than 100 µM each time. Further, the TGI in the experiment with SW-620 colon, with T-47D breast and in the experiment on UACC-257 melanoma was more than 100 µM each time.

In the case of `NC(=O)CC(Nc1ncc2c(n1)-c1ccccc1OC2)C(=O)O` (stereo unspecified), the TGI in the experiment with KM12 colon, in the experiment with MALME-3M melanoma, with MCF7 breast, in the experiment with NCI-H226 lung, in the experiment on SF-295 CNS and in the experiment on SNB-19 CNS was more than 100 µM throughout. Also, the TGI in the experiment with SNB-75 CNS, in the experiment with SW-620 colon and in the experiment with UACC-257 melanoma was more than 100 µM throughout.

In the case of `CCOP(=O)(OCC)C(Nc1ccc(F)cc1)c1cccc([N+](=O)[O-])c1` (stereo unspecified), the TGI with KM12 colon, in the experiment with MALME-3M melanoma, in the experiment on MCF7 breast, in the experiment on NCI-H226 lung, in the experiment with SF-295 CNS and in the experiment on SNB-19 CNS was more than 100 µM in each case. For the same compound, the TGI in the experiment with SNB-75 CNS, in the experiment on SW-620 colon and in the experiment on UACC-257 melanoma was more than 100 µM each time.

In the case of `COC(=O)C(COC(=O)/C=C/c1ccc(OC(C)=O)c(OC(C)=O)c1)OC(=O)/C=C/c1ccc(OC(C)=O)c(OC(C)=O)c1` (stereo unspecified), the total growth inhibition concentration (TGI) in the experiment with KM12 colon turned out to be 30.8 µM; with MALME-3M melanoma, 45.6 µM; in the experiment on MCF7 breast, 21.8 µM; with NCI-H226 lung, 90.5 µM; with SF-295 CNS, 33.2 µM; with SNB-19 CNS it was 22.2 µM. In addition, the TGI in the experiment on SW-620 colon worked out at 23.5 µM; in the experiment with UACC-257 melanoma, 29.9 µM.

For `O=C(c1ccco1)N(C(=S)OCc1ccccn1)c1ccccc1`, the total growth inhibition concentration (TGI) in the experiment on KM12 colon was more than 100 µM; in the experiment with MALME-3M melanoma, 79.2 µM; in the experiment on MCF7 breast, more than 100 µM; in the experiment on NCI-H226 lung, more than 100 µM; in the experiment with SNB-19 CNS, more than 100 µM; in the experiment on SW-620 colon it was more than 100 µM. In addition, the TGI in the experiment with T-47D breast and in the experiment with UACC-257 melanoma was more than 100 µM throughout.
